According to patent US20100267555A1, “Fungicidal mixtures II” (BASF SE, priority 2007, published 2010):
Like-named read-outs stand apart in the source and are kept apart here.

Key:
Format in all cases: cell-based
[1] = system: Septoria tritici; experiment: Activity against leaf blotch on wheat caused by Septoria tritici in the microtiter test (Septtr); conditions: single active compound, day 7 after inoculation
[2] = system: Phytophthora infestans; conditions: single active compound, 7 days after inoculation
[3] = system: Pyricularia oryzae; experiment: microbe, parasite or virus in culture; conditions: 7 days after inoculation; for inhibition of growth at 4 ppm: read-out: Observed efficacy, single active compound, 4 ppm; for inhibition of growth at 16 ppm: read-out: Observed efficacy, single active compound, 16 ppm; for inhibition of growth at 0.063 ppm: read-out: Observed efficacy, single active compound, 0.063 ppm; for Observed efficacy: single active compound

Fc1ccc([C@]2(Cn3cncn3)O[C@H]2c2ccccc2Cl)cc1 (racemic) [Epoxiconazole, (2RS,3SR)-1-[3-(2-chlorophenyl)-2,3-epoxy-2-(4-fluorophenyl)propyl]-1H-1,2,4-triazole, reference compound]
Observed efficacy ([1]; 0.063 ppm): 50%

O=C(OCc1cccc(C(F)(F)F)c1)[C@H](c1ccc(F)cc1F)[C@@H](O)c1cccnc1 (stereo in doubt) [I.57-RS, 3-trifluoromethylphenylmethyl 3-hydroxy-2-(2,4-difluorophenyl)-3-(3-pyridyl)propanoate]
Observed efficacy ([2]; 4 ppm): 3% | inhibition of growth at 4 ppm ([3]; Pyricularia oryzae, 168 h): 0% | inhibition of growth at 16 ppm ([3]; Pyricularia oryzae, 168 h): 9% | Observed efficacy ([1]; 4 ppm): 26%

O=C(OCc1cccc(C(F)(F)F)c1)[C@H](c1cccs1)[C@@H](O)c1cccnc1 (stereo in doubt) [I.59-RS, 3-trifluoromethylphenylmethyl 3-hydroxy-2-(2-thienyl)-3-(3-pyridyl)propanoate]
Observed efficacy ([2]; 4 ppm): 11% | inhibition of growth at 0.063 ppm ([3]; Pyricularia oryzae, 168 h): 1% | inhibition of growth at 16 ppm ([3]; Pyricularia oryzae, 168 h): 14% | Observed efficacy ([3]; 4 ppm): 0% | Observed efficacy ([1]; 4 ppm): 14%

COC(=O)Nc1nc2ccccc2[nH]1 [Carbendazim, methyl (1H-benzoimidazol-2-yl)-carbamate, reference compound]
inhibition of growth at 0.25 ppm ([3]; Pyricularia oryzae, 168 h, read-out: Observed efficacy, single active compound, 0.25 ppm): 19%

N#Cc1c(Cl)c(Cl)c(Cl)c(C#N)c1Cl [Chlorothalonil, 2,4,5,6-tetrachloroisophthalonitrile, reference compound]
Observed efficacy ([2]; 0.25 ppm): 16%

Cc1ccc(-c2c(Cl)nc(C#N)n2S(=O)(=O)N(C)C)cc1 [Cyazofamid, 4-chloro-2-cyano-N,N-dimethyl-5-(4-methylphenyl)-1H-imidazole-1-sulfonamide, reference compound]
Observed efficacy ([2]; 0.016 ppm): 56%

Cc1cc(C2CC2)nc(Nc2ccccc2)n1 [Cyprodinil, (4-cyclopropyl-6-methylpyrimidin-2-yl)phenylamine, reference compound]
inhibition of growth at 4 ppm ([3]; Pyricularia oryzae, 168 h): 71%

CO/N=C(/C1=NOCCO1)c1ccccc1Oc1ncnc(Oc2ccccc2Cl)c1F [Fluoxastrobin, (E)-{2-[6-(2-chlorophenoxy)-5-fluoropyrimidin-4-yloxy]phenyl}(5,6-dihydro-1,4,2-dioxazin-3-yl)methanone O-methyloxime, reference compound]
inhibition of growth at 0.063 ppm ([3]; Pyricularia oryzae, 168 h): 57% | Observed efficacy ([1]; 0.25 ppm): 58%

O=C(OCc1cccc(C(F)(F)F)c1)[C@H](c1ccc(F)cc1F)[C@@H](O)c1cccnc1 [I.57-RR, 3-trifluoromethylphenylmethyl 3-hydroxy-2-(2,4-difluorophenyl)-3-(3-pyridyl)propanoate]
Observed efficacy ([2]; 0.016 ppm): 0% | Observed efficacy ([1]; 0.063 ppm): 4%

O=C(OCc1cccc(C(F)(F)F)c1)[C@H](c1cccs1)[C@@H](O)c1cccnc1 [I.59-RR, 3-trifluoromethylphenylmethyl 3-hydroxy-2-(2-thienyl)-3-(3-pyridyl)propanoate]
Observed efficacy ([2]; 4 ppm): 7% | inhibition of growth at 4 ppm ([3]; Pyricularia oryzae, 168 h): 0% | Observed efficacy ([3]; 16 ppm): 8%

CC(C)NC(=O)N1CC(=O)N(c2cc(Cl)cc(Cl)c2)C1=O [Iprodione, N-isopropyl-3-(3,5-dichlorophenyl)-2,4-dioxoimidazolidine-1-carboxamide, reference compound]
inhibition of growth at 4 ppm ([3]; Pyricularia oryzae, 168 h): 18%

Cc1ccc(C(C)NC(=O)[C@@H](NC(=O)OC(C)C)C(C)C)cc1 (stereo partly drawn) [Iprovalicarb, isopropyl [(1S)-2-methyl-1-(1-p-tolylethylcarbamoyl)propyl]carbamate, reference compound]
Observed efficacy ([2]; 0.25 ppm): 9%

COC=C(C(=O)OC)c1ccccc1COc1cccc(C(F)(F)F)n1 [Picoxystrobin, methyl 3-methoxy-2-[2-(6-trifluoromethylpyridin-2-yloxymethyl)phenyl]acrylate, reference compound]
inhibition of growth at 0.063 ppm ([3]; Pyricularia oryzae, 168 h): 49%

OC(Cc1ccccc1Cl)(Cn1nc[nH]c1=S)C1(Cl)CC1 (stereo not shown) [Prothioconazol, 2-[2-(1-chlorocyclopropyl)-3-(2-chlorophenyl)-2-hydroxypropyl]-2,4-dihydro-[1,2,4]triazole-3-thione, reference compound]
inhibition of growth at 4 ppm ([3]; Pyricularia oryzae, 168 h): 15%
